Among the data in BindingDB's records for doi:10.1016/j.bmc.2010.04.075 (Chungnam National University, 2010) are IC50 values, retold here.

The nature of the assay: Inhibition of IL5-mediated proliferation of mouse Y16 cells by WST1 assay.
As for `COc1cc(-c2coc3cccc(OCC4CCCCC4)c3c2=O)ccc1OCc1ccccc1` [3-(4-(Benzyloxy)-3-methoxyphenyl)-5-(cyclohexylmethoxy)-4H-chromen-4-one], the IC50 (in general, the midpoint of a concentration-inhibition curve) came to 17.4 µM.

On to `COc1ccc(-c2coc3cccc(OCC4CCCCC4)c3c2=O)cc1OC` [5-(Cyclohexylmethoxy)-3-(3,4-dimethoxyphenyl)-4Hchromen-4-one], for which the IC50 is > 30 µM.

In the case of `CCc1ccc(-c2coc3cccc(OCC4CCCCC4)c3c2=O)cc1` [5-(Cyclohexylmethoxy)-3-(4-ethylphenyl)-4H-chromen-4-one], the IC50 was > 30 µM.

For `COc1cc(-c2coc3cccc(OCC4CCCCC4)c3c2=O)ccc1O` [5-(Cyclohexylmethoxy)-3-(4-hydroxy-3-methoxyphenyl)-4H-chromen-4-one], the IC50 is > 30 µM.

Turning to `COc1ccc(-c2coc3cccc(OCC4CCCCC4)c3c2=O)cc1` [5-(Cyclohexylmethoxy)-3-(4-methoxyphenyl)-4H-chromen-4-one], the IC50 is > 30 µM.

Consider `COCOc1ccc(-c2coc3cccc(OCC4CCCCC4)c3c2=O)cc1` [5-(Cyclohexylmethoxy)-3-[4-(methoxymethoxy)phenyl]-4H-chromen-4-one], for which the IC50 was > 30 µM.

Take `O=C1/C(=C/c2ccc(Cl)cc2)Oc2cccc(OCC3CCCCC3)c21` [(Z)-2-(4-Chlorobenzylidene)-4-(cyclohexylmethoxy)benzofuran-3(2H)-one]: the half-inhibitory concentration (IC50) is > 30 µM.

Regarding `O=C1/C(=C/c2ccccc2)Oc2cccc(OCC3CCCCC3)c21` [(Z)-2-(Benzylidene)-4-(cyclohexylmethoxy)benzofuran-3(2H)-one], the concentration for half-maximal inhibition (IC50) is > 30 µM.

As for `O=C1/C(=C/c2ccc([N+](=O)[O-])cc2)Oc2cccc(OCC3CCCCC3)c21` [(Z)-4-(Cyclohexylmethoxy)-2-(4-nitrobenzylidene)benzofuran-3(2H)-one], the IC50 was > 30 µM.

As for `CCc1ccc(/C=C2\Oc3cccc(OCC4CCCCC4)c3C2=O)cc1` [(Z)-4-(cyclohexylmethoxy)-2-(4-ethylbenzylidene)benzofuran-3(2H)-one], the IC50 is > 30 µM.

Turning to `O=Cc1ccc(/C=C2\Oc3cccc(OCC4CCCCC4)c3C2=O)cc1` [(Z)-4-{[4-(Cyclohexylmethoxy)-3-oxobenzofuran-2(3H)-ylidene]methyl}benzaldehyde], the IC50 was > 30 µM.

Regarding `COC(=O)c1ccc(/C=C2\Oc3cccc(OCC4CCCCC4)c3C2=O)cc1` [Methyl(Z)-4-[4-(cyclohexylmethoxy)-3-oxobenzofuran-2(3H)-ylidene]methylbenzoate], the concentration for half-maximal inhibition (IC50) was > 30 µM.
